Data as given in US20050208496A1, “Methods of testing for bronchial asthma or chronic obstructive pulmonary disease” (Genox Research, Inc., priority 2002, published 2005).

System: respiratory epithelial cells

Substance: IL-13: human IL-13 (Peprotech, Inc.) added to the medium at 50 ng/mL to stimulate respiratory epithelial cells
- IFIT4 (38584_at) expression, fold change upon IL-13 stimulation (lot 2, Day 3, AI method): 10.3 fold
- IFITM1 (675_at) expression, fold change upon IL-13 stimulation (lot 2, Day 3, AI method): 3.6 fold
- IL13RA2 (1016_s_at) expression fold change upon IL-13 stimulation (lot 2, Day 3, AI method): 15.9 fold
- IL19 (47855_at) expression fold change (lot 2, Day 3, AI method): 10.9 fold
- ILIRL1 (40322_at) expression, fold change upon IL-13 stimulation (lot 2, Day 3, AI method): 9.8 fold
- IRF7 (36412_s_at) expression fold change (lot 2, Day 3, AI method): 3.4 fold
- ISG15 (1107_s_at) expression, fold change upon IL-13 stimulation (lot 2, Day 3, AI method): 8.8 fold
- ISG15 (38432_at) expression, fold change upon IL-13 stimulation (lot 2, Day 3, AI method): 12.6 fold
- ISG20 (33304_at) expression, fold change upon IL-13 stimulation (lot 2, Day 3, AI method): 3.3 fold
- KIAA0537 (33787_at) expression, fold change upon IL-13 stimulation (lot 2, Day 3, AI method): 4.8 fold
- KIAA1199 (36070_at) expression, fold change upon IL-13 stimulation (lot 2, Day 3, AI method): 2.7 fold
- KIAA1268 (57050_at) expression fold change (lot 2, Day 3, AI method): 2.2 fold
- KIAAI268 (59516_at) expression fold change (lot 2, Day 3, AI method): 2.2 fold
- KRT16 (601_s_at) expression fold change (lot 2, Day 3, AI method): 5.2 fold
- LAMP3 (37168_at) expression, fold change upon IL-13 stimulation (lot 2, Day 3, AI method): 5.4 fold
- LOC57118 (51085_at) expression fold change (lot 2, Day 3, AI method): 2.7 fold
- LOC64116 (40456_at) expression, fold change upon IL-13 stimulation (lot 2, Day 3, AI method): 5.6 fold
- MDA5 (51920_at) expression fold change (lot 2, Day 3, AI method): 3.3 fold
- MFHAS1 (50388_at) expression fold change (lot 2, Day 3, AI method): 2.4 fold
- MICB (35937_at) expression, fold change upon IL-13 stimulation (lot 2, Day 3, AI method): 2.7 fold
- MKP-L (38272_at) expression, fold change upon IL-13 stimulation (lot 2, Day 3, AI method): 2.5 fold
- MMP7 (668_s_at) expression, fold change upon IL-13 stimulation (lot 2, Day 3, AI method): 3.4 fold
- MP1 (34839_at) expression, fold change upon IL-13 stimulation (lot 2, Day 3, AI method): 2 fold
- MX2 (879_at) expression fold change (lot 2, Day 3, AI method): 6.9 fold
- MXI (37014_at) expression fold change (lot 2, Day 3, AI method): 11.4 fold
- NCF2 (41038_at) expression fold change (lot 2, Day 3, AI method): 4.4 fold
- NK4 (39119_s_at) expression fold change upon IL-13 stimulation (lot 2, Day 3, AI method): 4.1 fold
- NOS2A (1948_f_at) expression fold change upon IL-13 stimulation (lot 2, Day 3, AI method): 14.5 fold
- NOS2A (48918_at) expression fold change (lot 2, Day 3, AI method): 25.4 fold
- OAF (39695_at) expression, fold change upon IL-13 stimulation (lot 2, Day 3, AI method): 2.7 fold
- OAS1 (38388_at) expression fold change upon IL-13 stimulation (lot 2, Day 3, AI method): 6.5 fold
- OAS1 (38389_at) expression fold change upon IL-13 stimulation (lot 2, Day 3, AI method): 4.7 fold
- OAS2 (39263_at) expression fold change upon IL-13 stimulation (lot 2, Day 3, AI method): 3.5 fold
- OSF-2 (1451_s_at) expression fold change upon IL-13 stimulation (lot 2, Day 3, AI method): 86.8 fold
- PKD2 (38120_at) expression, fold change upon IL-13 stimulation (lot 2, Day 3, AI method): 2.4 fold
- PLOD2 (34795_at) expression fold change upon IL-13 stimulation (lot 2, Day 3, AI method): 2 fold
- PLS1 (39951_at) expression fold change (lot 2, Day 3, AI method): 3.1 fold
- PLSCR1 (32775_r_at) expression fold change upon IL-13 stimulation (lot 2, Day 3, AI method): 3 fold
- PMCH (32005_at) expression fold change (lot 2, Day 3, AI method): 12.2 fold
- PSMB9 (38287_at) expression fold change upon IL-13 stimulation (lot 2, Day 3, AI method): 2.7 fold
- PVRL2 (50320_g_at) expression fold change (lot 2, Day 3, AI method): 2.2 fold
- RASGRP1 (33291_at) expression fold change (lot 2, Day 3, AI method): 3.7 fold
- RIG-1 (59215_at) expression fold change (lot 2, Day 3, AI method): 11.8 fold
- SAMHD1 (34714_at) expression, fold change upon IL-13 stimulation (lot 2, Day 3, AI method): 3.7 fold
- SCYB10 (431_at) expression fold change upon IL-13 stimulation (lot 2, Day 3, AI method): 4.9 fold
- SCYB11 (35061_at) expression fold change upon IL-13 stimulation (lot 2, Day 3, AI method): 6.8 fold
- SECTM1 (41045_at) expression, fold change upon IL-13 stimulation (lot 2, Day 3, AI method): 6.8 fold
- SERPINB2 (37185_at) expression fold change (lot 2, Day 3, AI method): 4.1 fold
- SERPINB4 (1549_s_at) expression fold change (lot 2, Day 3, AI method): 9.6 fold
- SERPINB6 (34789_at) expression fold change (lot 2, Day 3, AI method): 2.1 fold
- SIAT1 (41352_at) expression fold change upon IL-13 stimulation (lot 2, Day 3, AI method): 3.9 fold
- SLC26A4, pendrin (36376_at) expression fold change (lot 2, Day 3, AI method): 118.3 fold
- SSI-1 (41592_at) expression, fold change upon IL-13 stimulation (lot 2, Day 3, AI method): 15.5 fold
- STAT1 (32860_g_at) expression fold change (lot 2, Day 3, AI method): 2.1 fold
- STAT1 (33338_at) expression fold change (lot 2, Day 3, AI method): 5.8 fold
- STAT1 (33339_g_at) expression fold change (lot 2, Day 3, AI method): 3.2 fold
- TGFB2 (1262_s_at) expression fold change upon IL-13 stimulation (lot 2, Day 3, AI method): 4.1 fold
- TGM2 (38404_at) expression fold change upon IL-13 stimulation (lot 2, Day 3, AI method): 2.1 fold
- THBS1 (115_at) expression fold change upon IL-13 stimulation (lot 2, Day 3, AI method): 4.1 fold
- TSPAN-3 (38612_at) expression, fold change upon IL-13 stimulation (lot 2, Day 3, AI method): 2.5 fold
- UBE2L6 (40505_at) expression fold change upon IL-13 stimulation (lot 2, Day 3, AI method): 2.1 fold
- UFD1L (811_at) expression, fold change upon IL-13 stimulation (lot 2, Day 3, AI method): 3.1 fold
- WARS (38121_at) expression fold change upon IL-13 stimulation (lot 2, Day 3, AI method): 8.7 fold
- cig5 (38549_at) expression, fold change upon IL-13 stimulation (lot 2, Day 3, AI method): 14.3 fold
- diubiquitin (39959_at) expression, fold change upon IL-13 stimulation (lot 2, Day 3, AI method): 16.3 fold
- AA167714 (54897_at) expression fold change (lot 2, Day 7, AI method): 4.7 fold
- AA420479 (52539_at) expression fold change (lot 2, Day 7, AI method): 10.1 fold
- AA541787 (52622_at) expression fold change (lot 2, Day 7, AI method): 3.9 fold
- AA582926 (52307_at) expression fold change (lot 2, Day 7, AI method): 3.7 fold
- AA604375 (44127_at) expression fold change (lot 2, Day 7, AI method): 3.9 fold
- ACP5 (677_s_at) expression, fold change upon IL-13 stimulation (lot 2, Day 7, AI method): 2.8 fold
- ADAM8 (40712_at) expression, fold change upon IL-13 stimulation (lot 2, Day 7, AI method): 4.5 fold
- ADAM28 (35479_at) expression, fold change upon IL-13 stimulation (lot 2, Day 7, AI method): 3.7 fold
- AI565105 (54886_at) expression fold change (lot 2, Day 7, AI method): 2.4 fold
- AI659927 (54033_at) expression fold change (lot 2, Day 7, AI method): 3 fold
- AI700705 (46658_at) expression fold change (lot 2, Day 7, AI method): 2.5 fold
- AI821796 (57694_at) expression fold change (lot 2, Day 7, AI method): 2.5 fold
- AI989346 (52327_s_at) expression fold change (lot 2, Day 7, AI method): 2.5 fold
- AKAP2 (35985_at) expression, fold change upon IL-13 stimulation (lot 2, Day 7, AI method): 7.6 fold
- AKAP2 (48035_at) expression fold change (lot 2, Day 7, AI method): 6.4 fold
- AKAP10 (36632_at) expression, fold change upon IL-13 stimulation (lot 2, Day 7, AI method): 2.4 fold
- ALOX15 (34636_at) expression, fold change upon IL-13 stimulation (lot 2, Day 7, AI method): 322.1 fold
- ARHE (35803_at) expression fold change upon IL-13 stimulation (lot 2, Day 7, AI method): 2 fold
- ARL7 (57151_at) expression fold change (lot 2, Day 7, AI method): 5.3 fold
- AW019985 (48826_s_at) expression fold change (lot 2, Day 7, AI method): 14.7 fold
- AXL (38433_at) expression, fold change upon IL-13 stimulation (lot 2, Day 7, AI method): 7.5 fold
- BAL (52167_at) expression fold change (lot 2, Day 7, AI method): 1.6 fold
- BIG2 (34484_at) expression, fold change upon IL-13 stimulation (lot 2, Day 7, AI method): 2.9 fold
- BST2 (39061_at) expression, fold change upon IL-13 stimulation (lot 2, Day 7, AI method): 3.1 fold
- C1S (40496_at) expression, fold change upon IL-13 stimulation (lot 2, Day 7, AI method): 4.1 fold
- C21orf11 (58957_at) expression fold change (lot 2, Day 7, AI method): 2.4 fold
- CDH6 (1620_at) expression fold change upon IL-13 stimulation (lot 2, Day 7, AI method): 12.1 fold
- CDH6 (57421_at) expression fold change (lot 2, Day 7, AI method): 3.7 fold
- CDH26 (46916_at) expression fold change (lot 2, Day 7, AI method): 5.4 fold
- CH25H (32363_at) expression, fold change upon IL-13 stimulation (lot 2, Day 7, AI method): 12 fold
- CLDN1 (46260_at) expression fold change (lot 2, Day 7, AI method): 3.6 fold
- CLDN4 (35276_at) expression, fold change upon IL-13 stimulation (lot 2, Day 7, AI method): 23 fold
- CLDN5 (38995_at) expression, fold change upon IL-13 stimulation (lot 2, Day 7, AI method): 8.3 fold
- CTSC (133_at) expression, fold change upon IL-13 stimulation (lot 2, Day 7, AI method): 2.2 fold
- CXCL16 (44095_at) expression fold change (lot 2, Day 7, AI method): 2 fold
- DBCCR1 (40292_at) expression, fold change upon IL-13 stimulation (lot 2, Day 7, AI method): 19.3 fold
- DD96 (31610_at) expression, fold change upon IL-13 stimulation (lot 2, Day 7, AI method): 2.5 fold
- DDIT3 (39420_at) expression, fold change upon IL-13 stimulation (lot 2, Day 7, AI method): 29.5 fold
- DKFZP564O0823 (41402_at) expression, fold change upon IL-13 stimulation (lot 2, Day 7, AI method): 4.6 fold
- DKFZP566J091 (57197_at) expression fold change (lot 2, Day 7, AI method): 15.2 fold
- DKFZp564N1116 (37784_at) expression, fold change upon IL-13 stimulation (lot 2, Day 7, AI method): 7.8 fold
